Test results reported in patent US20250002512A1, “NOVEL ANTI-[…] NE[…] AND THERAPEUTIC USES THEREOF” (MARVEL BIOTECHNOLOGY, priority 2021, published 2025).

Key:
[1] = system: male CD-1 mice; assay: forced swim test (FST), preclinical model of depression; format: in vivo; conditions: n=8/group, 50 mgs/kg orally once a day for seven days, FST on seventh day; for immobilization time (2-6 minutes): compared with fluoxetine 30 mg/kg, one-way ANOVA, Fisher LSD, FIG. 1; for latency to immobility: compared with vehicle control, FIG. 2
Method: The forced swim test (FST) is a widely accepted pre-clinical model to test the anti-depressive effects of molecules (Can A, Dao D T, Arad M, Terrillion C E, Piantadosi S C, Gould T D. The Mouse Forced Swim Test. J Vis Exp. 2012; (59): 3638. doi: 10.3791/3638).
Briefly, male CD-1 mice (approximately 25-35 g, n=8/group) were dosed orally once a day with either vehicle (2% aqueous DMSO, 0.5% carboxymethyl cellulose), compound 1 (50 mgs/kg in vehicle), compound 2 (50 mgs/kg in vehicle) or fluoxetine (aka. Prozac®, 30 mg/kg in vehicle) for seven days. Seven days is a comparatively short time to observe an anti-depressant effect with an orally dosed drug. On the seventh day, animals were tested in the FST and observed for abnormal behaviours (e.g. hallucinating).

[2] = biological target: brain derived neurotrophic factor (BDNF) receptor TrkB (Homo sapiens, UniProt Q16620); conditions: cited from Shen J et al.; cited from earlier work
Chain of brain derived neurotrophic factor (BDNF) receptor TrkB (Q16620 32-822): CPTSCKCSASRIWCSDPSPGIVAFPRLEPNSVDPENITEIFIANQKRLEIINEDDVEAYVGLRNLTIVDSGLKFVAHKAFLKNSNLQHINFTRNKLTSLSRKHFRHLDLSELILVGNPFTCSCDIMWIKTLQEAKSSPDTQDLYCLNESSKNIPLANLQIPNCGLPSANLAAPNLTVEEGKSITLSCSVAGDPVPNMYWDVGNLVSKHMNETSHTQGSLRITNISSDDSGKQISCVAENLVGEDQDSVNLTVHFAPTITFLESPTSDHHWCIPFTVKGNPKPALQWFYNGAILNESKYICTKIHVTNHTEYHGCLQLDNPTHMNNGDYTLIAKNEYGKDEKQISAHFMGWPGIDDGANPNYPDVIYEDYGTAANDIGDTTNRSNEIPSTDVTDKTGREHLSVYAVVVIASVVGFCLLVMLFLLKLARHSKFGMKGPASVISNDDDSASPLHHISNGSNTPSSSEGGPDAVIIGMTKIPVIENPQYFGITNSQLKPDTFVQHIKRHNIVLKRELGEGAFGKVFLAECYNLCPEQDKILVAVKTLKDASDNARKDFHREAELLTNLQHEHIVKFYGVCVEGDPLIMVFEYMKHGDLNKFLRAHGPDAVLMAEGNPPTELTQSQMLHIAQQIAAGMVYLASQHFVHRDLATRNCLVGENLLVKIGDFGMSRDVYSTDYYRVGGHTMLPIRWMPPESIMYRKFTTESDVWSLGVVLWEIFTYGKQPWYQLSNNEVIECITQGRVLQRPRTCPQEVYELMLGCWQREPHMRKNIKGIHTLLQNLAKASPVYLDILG

Compound: O=C1NCCCC1C(=O)NCCc1c[nH]c2ccc(OP(=O)(O)O)cc12 (centres unmarked) [Compound 1, N-{2-[5-(Dihydroxyphosphoryloxy)-1H-indol-3-yl]ethyl}-2-oxo-3-piperidinecarboxamide]
- immobilization time (2-6 minutes) [1]: significantly better than fluoxetine
- latency to immobility [1]: better than vehicle control

Compound: N-[2-(5-hydroxy-1H-indol-3-yl)ethyl]-2-oxopiperidine-3-carboxyamide [HIOC]
- activation of BDNF receptor TrkB [2]: activate

Compound: O=C(CN1CCCC1=O)NCCc1c[nH]c2ccc(OP(=O)(O)O)cc12 [Compound 2, N-{2-[5-(dihydroxyphosphoryloxy)-1H-indol-3-yl]ethyl}(2-oxo-1-pyrrolidinyl) acetamide]
- immobilization time (2-6 minutes) [1]: significantly better than fluoxetine
- latency to immobility [1]: better than vehicle control
